Assay results taken from publication PMC12040169 (PLOS Biology, 2025).

Assay: in vitro
Conditions: human, hela cells, % viability

Question: With `O=C(/C=C/c1cccc2ccccc12)N1CCCCCC1` [CBK264092] as the compound, how does the viability at 28.5 h, 10 µM read?
Answer: 111%

Question: With `Cc1ccc(SCCNC(=O)C(C)Sc2ccc(Cl)cc2)cc1` (centres unmarked) [CBK264104] as the compound, how does the viability at 28.5 h, 10 µM read?
Answer: 93.5%

Question: Which viability at 28.5 h, 10 µM does the source give for `O=C(NC(=S)Nc1ccc2oc(-c3ccncc3)nc2c1)c1ccccc1[N+](=O)[O-]` [CBK264106] here?
Answer: 87.3%

Question: With `Cc1cc(C)cc(N(CC(=O)Nc2ccc(C)c(Cl)c2)S(=O)(=O)c2ccccc2)c1` [CBK264109] as the compound, how does the viability at 28.5 h, 10 µM read?
Answer: 98.9%

Question: For `NC(=S)NC(=O)CN1C(=O)c2ccccc2C1=O` [CBK264111], which viability at 28.5 h, 10 µM is on record?
Answer: 90.9%

Question: With `CC(Oc1ccc(Cl)cc1Cl)C(=O)Nc1ccc(O)cc1` (centres unmarked) [CBK264120] as the compound, how does the viability at 28.5 h, 10 µM read?
Answer: 94.8%

Question: With `COc1ccc(C)cc1NC(=O)CN(c1ccc(F)cc1)S(=O)(=O)c1ccc(C)cc1` [CBK264122] as the compound, how does the viability at 28.5 h, 10 µM read?
Answer: 101%

Question: Which viability at 28.5 h, 10 µM does the source give for `Cc1ccc(S(=O)(=O)N(CC(=O)NCc2ccco2)c2cccc(C)c2)cc1` [CBK264125] here?
Answer: 93.9%

Question: With `Cc1ccc(S(=O)(=O)NCCSc2ccc(Cl)cc2)cc1[N+](=O)[O-]` [CBK264126] as the compound, how does the viability at 28.5 h, 10 µM read?
Answer: 96.8%

Question: Which viability at 28.5 h, 10 µM does the source give for `CCOc1ccc(C(=O)NC(=S)Nc2ncccc2C)cc1[N+](=O)[O-]` [CBK264128] here?
Answer: 98.3%

Question: For `CN(c1ccc(C(=O)Nc2ccc(S(=O)(=O)N3CCOCC3)cc2)cc1)S(=O)(=O)c1ccccc1` [CBK264129], which viability at 28.5 h, 10 µM is on record?
Answer: 96.7%

Question: Which viability at 28.5 h, 10 µM does the source give for `COc1cc(S(=O)(=O)Oc2ccc(OCc3ccccc3)cc2)ccc1Cl` [CBK264132] here?
Answer: 92.2%

Question: For `O=C(CCSc1ccc(Cl)cc1)Nc1ccc(S(=O)(=O)N2CCOCC2)cc1` [CBK264133], which viability at 28.5 h, 10 µM is on record?
Answer: 95.5%

Question: Which viability at 28.5 h, 10 µM does the source give for `O=C(COc1ccc2ccccc2c1Br)Nc1ccc(S(=O)(=O)N2CCCC2)cc1` [CBK264135] here?
Answer: 99.3%

Question: For `COc1ccc(Cl)cc1N(CC(=O)Nc1ccccc1C(=O)O)S(C)(=O)=O` [CBK264137], which viability at 28.5 h, 10 µM is on record?
Answer: 96.9%

Question: With `Cc1c(NC(=O)C2CN(S(=O)(=O)c3ccccc3)CCN2S(=O)(=O)c2ccccc2)c(=O)n(-c2ccccc2)n1C` (centres unmarked) [CBK264138] as the compound, how does the viability at 28.5 h, 10 µM read?
Answer: 98%

Question: With `Cc1ccc(S(=O)(=O)N(CC(=O)NCC2CCCO2)c2ccccc2)cc1` (centres unmarked) [CBK264140] as the compound, how does the viability at 28.5 h, 10 µM read?
Answer: 90.9%

Question: Which viability at 28.5 h, 10 µM does the source give for `COc1ccc(S(=O)(=O)N(CC(=O)Nc2ccc(F)cc2)c2ccccc2)cc1` [CBK264141] here?
Answer: 96.5%

Question: With `O=C(CSc1nsc(SCC(=O)c2ccccc2)n1)c1ccccc1` [CBK264142] as the compound, how does the viability at 28.5 h, 10 µM read?
Answer: 120%

Question: With `Cc1ccc(C(=O)NCCNS(=O)(=O)c2ccccc2)cc1` [CBK264145] as the compound, how does the viability at 28.5 h, 10 µM read?
Answer: 88.8%

Question: Which viability at 28.5 h, 10 µM does the source give for `CC(C)(C)C1CCc2c(sc(NC(=O)CCC(=O)O)c2C(=O)Nc2ccccc2Cl)C1` (centres unmarked) [CBK264146] here?
Answer: 87.2%

Question: Which viability at 28.5 h, 10 µM does the source give for `C/C=C/c1ccc(OCCCSc2ccc(Cl)cc2)c(OC)c1` [CBK264147] here?
Answer: 97.5%

Question: Which viability at 28.5 h, 10 µM does the source give for `O=S(=O)(c1ccc2ccccc2c1)N1CCN(C2CCC(c3ccccc3)CC2)CC1` (centres unmarked) [CBK264152] here?
Answer: 103%

Question: Which viability at 28.5 h, 10 µM does the source give for `O=C(COc1ccc(-c2ccccc2)cc1)N1CCN(S(=O)(=O)c2ccccc2[N+](=O)[O-])CC1` [CBK264154] here?
Answer: 93%

Question: For `O=C(O)CCC(C(=O)O)N1C(=O)c2cc(Cl)c(Cl)cc2C1=O` (centres unmarked) [CBK264156], which viability at 28.5 h, 10 µM is on record?
Answer: 113%

Question: For `COc1ccc(N2CCN(c3nc(N4CCOCC4)nc(N4CCOCC4)n3)CC2)cc1` [CBK264166], which viability at 28.5 h, 10 µM is on record?
Answer: 100%

Question: For `CC(C)(C)c1ccc(C(=O)NC(=S)Nc2ccc(O)c(-c3nc4cc(Cl)ccc4o3)c2)cc1` [CBK264169], which viability at 28.5 h, 10 µM is on record?
Answer: 88%

Question: With `CC(=O)Nc1ccc(S(=O)(=O)N2CCN(Cc3ccccc3[N+](=O)[O-])CC2)cc1` [CBK264170] as the compound, how does the viability at 28.5 h, 10 µM read?
Answer: 89.3%

Question: With `O=C(Nc1ccc(Cl)cc1)C(Cc1ccccc1)N1C(=O)c2cc(Cl)c(Cl)cc2C1=O` (centres unmarked) [CBK264172] as the compound, how does the viability at 28.5 h, 10 µM read?
Answer: 99.2%

Question: For `Cc1cccc(NC(S)=NCc2ccccn2)c1` [CBK264174], which viability at 28.5 h, 10 µM is on record?
Answer: 104%

Same assay, conditions: human, hela cells, % viability, bulk resorufin, single well

Question: For `Cc1cccc(N2C(=O)/C(=C/c3ccccc3OCc3ccc(C(=O)O)cc3)C(=O)NC2=S)c1` [CBK264100], which viability at 28.5 h, 10 µM is on record?
Answer: 95.3%

Question: With `CCc1ccccc1N1C(=O)NC(=O)/C(=C\c2ccc(OCC(=O)O)c(Cl)c2)C1=O` [CBK264107] as the compound, how does the viability at 28.5 h, 10 µM read?
Answer: 95.2%
